Literature values in patent publication US8586760B2, “Aminothiazole modulators of beta-3-adrenoreceptor” (Auspex Pharmaceuticals, Inc., priority 2009, dated 2013).

Legend:
CYP2D6 = CYP2D6 (Homo sapiens, UniProt P10635)
CYP3A4 = CYP3A4 (Homo sapiens, UniProt P08684)
[1] = poor metabolizers compared to extensive metabolizers

Chain of CYP2D6 (P10635 whole entry): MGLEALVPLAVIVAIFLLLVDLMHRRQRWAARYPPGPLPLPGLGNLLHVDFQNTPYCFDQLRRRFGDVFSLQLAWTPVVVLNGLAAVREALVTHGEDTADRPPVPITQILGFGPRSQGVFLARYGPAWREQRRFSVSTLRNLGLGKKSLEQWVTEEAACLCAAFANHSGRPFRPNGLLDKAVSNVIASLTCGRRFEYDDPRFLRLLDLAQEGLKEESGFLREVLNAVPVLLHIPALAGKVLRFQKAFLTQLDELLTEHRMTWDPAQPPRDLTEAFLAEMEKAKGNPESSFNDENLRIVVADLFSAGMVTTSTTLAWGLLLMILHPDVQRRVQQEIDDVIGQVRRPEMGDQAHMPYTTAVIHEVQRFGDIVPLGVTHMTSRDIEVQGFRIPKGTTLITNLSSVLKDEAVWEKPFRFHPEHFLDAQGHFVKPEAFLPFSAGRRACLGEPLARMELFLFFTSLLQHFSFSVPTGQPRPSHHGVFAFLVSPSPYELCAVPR
Chain of CYP3A4 (P08684 whole entry): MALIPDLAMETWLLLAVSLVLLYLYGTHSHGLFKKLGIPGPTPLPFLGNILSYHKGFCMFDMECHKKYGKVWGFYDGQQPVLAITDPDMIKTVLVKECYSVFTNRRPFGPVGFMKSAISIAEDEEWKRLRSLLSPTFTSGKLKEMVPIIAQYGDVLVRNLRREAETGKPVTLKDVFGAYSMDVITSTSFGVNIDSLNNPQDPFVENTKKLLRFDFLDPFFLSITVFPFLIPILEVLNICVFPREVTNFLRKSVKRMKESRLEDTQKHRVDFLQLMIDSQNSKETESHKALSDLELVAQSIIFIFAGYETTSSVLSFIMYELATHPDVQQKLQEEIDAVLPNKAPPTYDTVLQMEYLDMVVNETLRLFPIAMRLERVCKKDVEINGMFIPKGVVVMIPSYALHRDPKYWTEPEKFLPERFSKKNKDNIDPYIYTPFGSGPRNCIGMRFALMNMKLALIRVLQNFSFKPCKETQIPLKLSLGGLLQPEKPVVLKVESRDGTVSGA

metabolism by CYP2D6 (CYP2D6): oxidative cleavage | Intersubject variability (poor metabolizers): generally higher | Mean Cmax [1]: slightly higher | mean AUC [1]: slightly higher | t1/2 [1]: longer | metabolism by CYP3A4 (CYP3A4): oxidative cleavage
SMILES: Nc1nc(CC(=O)Nc2ccc(CCNC[C@H](O)c3ccccc3)cc2)cs1 [Mirabegron, 2-amino-N-[4-[2-[[(2R)-2-hydroxy-2-phenylethyl]amino]ethyl]phenyl]-4-thiazoleacetamide]
